Key:
[1] = target: T1, Human NHE3 (Homo sapiens, UniProt P48764); experiment: Cell-based NHE3 activity under prompt conditions (OK cells, BCECF pH recovery), human NHE3; details: prompt conditions
T1 construct: expressed in transfected cells; host or cells: Opossum kidney (OK) cells (ATCC), electroporation
T1 sequence (P48764 26-834): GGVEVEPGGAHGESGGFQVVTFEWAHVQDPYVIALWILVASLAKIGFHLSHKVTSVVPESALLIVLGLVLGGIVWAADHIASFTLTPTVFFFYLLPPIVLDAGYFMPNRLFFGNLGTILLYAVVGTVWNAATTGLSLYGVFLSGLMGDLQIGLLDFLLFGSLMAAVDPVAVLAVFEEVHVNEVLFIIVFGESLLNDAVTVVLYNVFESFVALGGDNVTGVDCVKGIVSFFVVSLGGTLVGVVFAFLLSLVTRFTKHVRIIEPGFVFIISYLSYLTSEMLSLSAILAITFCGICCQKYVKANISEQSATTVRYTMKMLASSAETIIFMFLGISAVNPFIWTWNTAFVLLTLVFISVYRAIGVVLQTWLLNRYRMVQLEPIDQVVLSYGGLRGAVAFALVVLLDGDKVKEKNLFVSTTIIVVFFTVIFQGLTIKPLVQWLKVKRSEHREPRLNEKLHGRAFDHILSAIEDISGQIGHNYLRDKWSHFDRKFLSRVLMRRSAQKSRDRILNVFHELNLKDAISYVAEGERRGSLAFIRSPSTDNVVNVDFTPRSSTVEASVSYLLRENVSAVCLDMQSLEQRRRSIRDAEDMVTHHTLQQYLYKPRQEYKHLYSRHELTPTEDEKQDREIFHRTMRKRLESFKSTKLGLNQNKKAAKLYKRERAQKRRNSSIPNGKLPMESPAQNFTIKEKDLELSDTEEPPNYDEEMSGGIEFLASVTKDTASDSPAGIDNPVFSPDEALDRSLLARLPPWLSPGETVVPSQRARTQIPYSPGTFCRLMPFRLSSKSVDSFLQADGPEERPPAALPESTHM
Procedure, shortened: (§1)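 OK cells electroporated with rat or human NHE3 gene, loaded 30 min at room temperature with 5 μM BCECF-AM in NH4Cl-HEPES pH 7.4.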

[2] = tested on: absorption of sodium from the intestinal lumen; experiment: Inhibition of intestinal sodium absorption: urinary sodium (uNa) 16 h after single oral dose in rats; assay type: in vivo, rat; details: oral gavage, 16 h post-dose
Procedure, shortened: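 Eight-week-old Sprague-Dawley rats (n=6) given single oral gavage of compound or water vehicle in the late afternoon, then kept in metabolic cages with chow and water ad libitum. Urine collected over 16 h; sodium quantified by ion chromatography and expressed as % of vehicle mean, compared by one-way ANOVA with Dunnett's test.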

[3] = tested on: phosphorus and calcium levels in the urine of rats; experiment: Urinary excretion of phosphate and calcium in rats (16 h overnight urine); assay type: in vivo, rat; details: rats, oral gavage, 16 h post-dose
[4] = tested on: absorption of sodium from the intestinal lumen; experiment: Fecal form score (FFS) 16 h after oral dose in rats; assay type: in vivo, rat; details: oral gavage, 16 h post-dose, scale 1-5
Procedure, shortened: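 Eight-week-old Sprague-Dawley rats (n=6) dosed by oral gavage with compound or water vehicle between 4 and 5 PM, then housed in metabolic cages with food and water ad libitum. At 16 h, fecal form scored 1 (normal pellet) to 5 (liquid streams) by two observers; group mean reported.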

[5] = target: T2, Rat NHE3 (Rattus norvegicus, UniProt P26433); experiment: Cell-based NHE3 activity under prompt conditions (OK cells, BCECF pH recovery), rat NHE3; details: prompt conditions; for IC50: read-out: Prompt Rat NHE3 pIC50 (converted)
T2 construct: expressed in transfected cells; host or cells: Opossum kidney (OK) cells (ATCC), electroporation
T2 sequence (P26433 29-831): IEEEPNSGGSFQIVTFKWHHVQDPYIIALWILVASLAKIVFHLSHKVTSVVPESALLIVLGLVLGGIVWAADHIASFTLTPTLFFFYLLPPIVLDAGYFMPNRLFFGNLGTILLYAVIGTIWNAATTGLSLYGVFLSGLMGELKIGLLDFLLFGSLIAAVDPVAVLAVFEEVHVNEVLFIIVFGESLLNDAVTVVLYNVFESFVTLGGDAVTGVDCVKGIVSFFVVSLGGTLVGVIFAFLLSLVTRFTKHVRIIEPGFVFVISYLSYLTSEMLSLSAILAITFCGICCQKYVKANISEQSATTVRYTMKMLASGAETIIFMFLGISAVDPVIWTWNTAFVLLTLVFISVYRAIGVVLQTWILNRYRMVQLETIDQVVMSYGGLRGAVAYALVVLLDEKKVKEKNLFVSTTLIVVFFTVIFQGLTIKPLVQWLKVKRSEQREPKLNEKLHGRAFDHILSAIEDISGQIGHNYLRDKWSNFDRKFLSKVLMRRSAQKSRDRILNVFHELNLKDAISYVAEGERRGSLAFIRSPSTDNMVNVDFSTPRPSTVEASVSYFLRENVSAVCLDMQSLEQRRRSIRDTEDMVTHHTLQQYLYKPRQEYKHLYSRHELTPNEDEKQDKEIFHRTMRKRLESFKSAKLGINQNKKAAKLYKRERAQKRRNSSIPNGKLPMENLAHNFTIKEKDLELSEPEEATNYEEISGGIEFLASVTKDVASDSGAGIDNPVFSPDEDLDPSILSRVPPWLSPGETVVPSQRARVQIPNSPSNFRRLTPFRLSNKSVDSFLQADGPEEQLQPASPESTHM
Procedure, shortened: as §1

Row | SMILES | Prompt Human NHE3 pIC50 [1] | Urine Na % of control ([2]; dose 10 mg/kg) | Urine P % of control ([3]; dose 10 mg/kg) | Fecal Form Score average ([4]; dose 10 mg/kg) | Prompt Rat NHE3 pIC50 [5] | Urine Na % of control ([2]; dose 3 mg/kg) | Urine P % of control ([3]; dose 3 mg/kg) | Fecal Form Score average ([4]; dose 3 mg/kg) | other results
1 | C/C(=C\c1cc(F)c(Oc2ccc(S(=O)(=O)NCCOCCOCCOCCNC(=O)COCC(=O)NCCOCCOCCOCCNS(=O)(=O)c3ccc(Oc4c(F)cc(/C=C(\C)C(=O)N=C(N)N)cc4F)cc3)cc2)c(F)c1)C(=O)N=C(N)N [compound 15] | 7.90 | 77% | 65% | 1 | 7.30 |  |  |  | 
2 | N=C(N)Nc1nc(-c2cccc(OCCOCCOCCOCCNC(=O)NCCOCCOCCNC(=O)CN(CCN(CC(=O)O)CC(=O)NCCOCCOCCNC(=O)NCCOCCOCCOCCOc3cccc(-c4nc(NC(=N)N)nc5ccc(Cl)cc45)c3)CC(=O)O)c2)c2cc(Cl)ccc2n1 [compound 44] | 7.90 | 88% | 102% | 1 | 7.70 |  |  |  | 
3 | O=C(NCCCCNC(=O)NCCOCCOCCNS(=O)(=O)c1ccc(O[C@H]2c3ccccc3C[C@@H]2N2CCCCC2)cc1)NCCOCCOCCNS(=O)(=O)c1ccc(O[C@H]2c3ccccc3C[C@@H]2N2CCCCC2)cc1 [compound 66] | 8.35 | 35% | 30% | 1 |  |  |  |  | IC50 [5]: 4.47 nM
4 | C/C(=C\c1cc(F)c(Oc2ccc(S(=O)(=O)NCCOCCOCCOCCNC(=O)[C@H](O)[C@@H](O)C(=O)NCCOCCOCCOCCNS(=O)(=O)c3ccc(Oc4c(F)cc(/C=C(\C)C(=O)N=C(N)N)cc4F)cc3)cc2)c(F)c1)C(=O)N=C(N)N [compound 5] | 7.85 | 51% | 65% | 1 | 6.90 |  |  |  | Urine Na % of control ([2]; dose 30 mg/kg): 23%; Urine P % of control ([3]; dose 30 mg/kg): 105%; Fecal Form Score average ([4]; dose 30 mg/kg): 2
5 | CN1Cc2c(Cl)cc(Cl)cc2[C@H](c2cccc(S(=O)(=O)NCCOCCOCCNC(=O)CCC(CCC(=O)NCCOCCOCCNS(=O)(=O)c3cccc([C@@H]4CN(C)Cc5c(Cl)cc(Cl)cc54)c3)(CCC(=O)NCCOCCOCCNS(=O)(=O)c3cccc([C@@H]4CN(C)Cc5c(Cl)cc(Cl)cc54)c3)NC(=O)NC[C@H](O)[C@@H](O)[C@H](O)[C@H](O)CO)c2)C1 [compound 143] | 7.27 |  |  |  | 7.25 | 34% | 93% | 3 | Urine Na % of control ([2]; dose 1 mg/kg): 68%; Urine P % of control ([3]; dose 1 mg/kg): 73%; Fecal Form Score average ([4]; dose 1 mg/kg): 1
6 | O=C(NCCOCCOCCOCCNS(=O)(=O)c1ccc(O[C@H]2c3ccccc3C[C@@H]2N2CCCCC2)cc1)c1cccc(C(=O)NCCOCCOCCOCCNS(=O)(=O)c2ccc(O[C@H]3c4ccccc4C[C@@H]3N3CCCCC3)cc2)c1 [compound 118] | 8.10 | 83% | 131% | 1 | 7.40 |  |  |  | 
7 | CN1Cc2c(Cl)cc(Cl)cc2[C@H](c2cccc(S(=O)(=O)NCCOCCOCCN(C)C(=O)CCC(N)(CCC(=O)N(C)CCOCCOCCNS(=O)(=O)c3cccc([C@@H]4CN(C)Cc5c(Cl)cc(Cl)cc54)c3)CCC(=O)N(C)CCOCCOCCNS(=O)(=O)c3cccc([C@@H]4CN(C)Cc5c(Cl)cc(Cl)cc54)c3)c2)C1 [compound 175] | 7.40 |  |  |  | 7.80 | 102% | 48% | 1 | 
8 | CN1Cc2c(Cl)cc(Cl)cc2[C@H](c2cccc(S(=O)(=O)NCCOCCOCCOCCN)c2)C1 [compound 22] | 6.95 | 19% | 40% | 2 | 7.34 |  |  |  | Urine Na % of control ([2]; dose 1 mg/kg): 91%; Urine P % of control ([3]; dose 1 mg/kg): 64%; Fecal Form Score average ([4]; dose 1 mg/kg): 1
9 | CN1Cc2c(Cl)cc(Cl)cc2[C@H](c2cccc(S(=O)(=O)NCCOCCOCCNC(=O)NCCCCNC(=O)NCCOCCOCCNS(=O)(=O)c3cccc([C@@H]4CN(C)Cc5c(Cl)cc(Cl)cc54)c3)c2)C1 [compound 180] | 8.30 |  |  |  | 8.03 | 53% | 38% | 4 | Urine Na % of control ([2]; dose 0.03 mg/kg): 67%; Urine Na % of control ([2]; dose 0.1 mg/kg): 45%; Urine Na % of control ([2]; dose 0.3 mg/kg): 33%; Urine Na % of control ([2]; dose 1 mg/kg): 15%; Urine P % of control ([3]; dose 0.03 mg/kg): 80%; Urine P % of control ([3]; dose 0.1 mg/kg): 82%; Urine P % of control ([3]; dose 0.3 mg/kg): 75%; Urine P % of control ([3]; dose 1 mg/kg): 69%; Fecal Form Score average ([4]; dose 0.03 mg/kg): 1; Fecal Form Score average ([4]; dose 0.1 mg/kg): 1; Fecal Form Score average ([4]; dose 0.3 mg/kg): 3; Fecal Form Score average ([4]; dose 1 mg/kg): 3
10 | CC1Cc2c(Cl)cc(Cl)cc2[C@H](c2cccc(S(=O)(=O)NCCOCCOCCNC(=O)CCC(CCC(=O)NCCOCCOCCNS(=O)(=O)c3cccc([C@@H]4CN(C)Cc5c(Cl)cc(Cl)cc54)c3)(CCC(=O)NCCOCCOCCNS(=O)(=O)c3cccc([C@@H]4CN(C)Cc5c(Cl)cc(Cl)cc54)c3)NC(=O)N[C@@H](CC(=O)O)C(=O)O)c2)C1 (stereo partly drawn) [compound 145] |  |  |  |  |  | 41% | 51% | 3 | IC50 ([1]; read-out: Prompt Human NHE3 pIC50 (converted)): 20 nM; IC50 [5]: 25.1 nM
11 | CN1Cc2c(Cl)cc(Cl)cc2[C@H](c2cccc(S(=O)(=O)NCCOCCOCCNC(=O)CCC(CCC(=O)NCCOCCOCCNS(=O)(=O)c3cccc([C@@H]4CN(C)Cc5c(Cl)cc(Cl)cc54)c3)(CCC(=O)NCCOCCOCCNS(=O)(=O)c3cccc([C@@H]4CN(C)Cc5c(Cl)cc(Cl)cc54)c3)NC(=O)NCCS(=O)(=O)O)c2)C1 [compound 157] | 7.77 |  |  |  | 7.70 | 26% | 50% | 3 | 
12 | CN1Cc2c(Cl)cc(Cl)cc2[C@H](c2cccc(S(=O)(=O)NCCOCCOCCNC(=O)CN(CC(=O)NCCOCCOCCNS(=O)(=O)c3cccc([C@@H]4CN(C)Cc5c(Cl)cc(Cl)cc54)c3)CC(=O)NCCOCCOCCNS(=O)(=O)c3cccc([C@@H]4CN(C)Cc5c(Cl)cc(Cl)cc54)c3)c2)C1 [compound 74] | 6.80 | 30% | 44% | 3 | 6.30 |  |  |  | 
